This passage reports IC50 results from patent US9675584B2, “Substituted indoles for the inhibition of PASK” (BioEnergenix, LLC, priority 2011, dated 2017).

What is called IC50 is the concentration that gives 50% inhibition. Higher therefore signals weaker potency in that assay.

The test has as its target T1, hPASK (Homo sapiens, UniProt Q96RG2).
T1 construct: IC50 Kinase Domain; purchased Invitrogen
Briefly: Biochemical assay for hPASK activity (PAS kinase FRET assay; IC50 kinase domain). Conditions: PASK kinase domain. On the procedure:
Biochemical Assay for hPASK Activity
One assay for purified hPASK activity utilizes the Kinase-Glo Luminescent Kinase Assay (Promega), which quantifies the amount of ATP remaining in solution following kinase reaction. The assay is carried out in a 96-well plate format and is performed by adding a volume of Kinase-Glo Reagent (Promega, catalog #V3771) equal to the volume of solution in the well of a completed kinase reaction. Kinase-Glo reagent contains Luciferase and its substrate. After addition to a kinase reaction it allows to measure luminescence. The amount of ATP left in solution at the time of Kinase-Glo Plus addition is directly proportional to the luminescence that is measured in each well, and inversely correlated with kinase activity.
Purified hPASK from insect cells (0.02 μg) is added to a 50 μL reaction mix containing 40 mM HEPES (pH 7.0), 100 mM KCl, 5 mM MgCl2, 1 mM DTT and 1 μg of MBP protein. […] The luminescence is measured as soon as 10 minutes after Kinase-Glo reagent is added. […]
The aim of the FRET assay is to determine the inhibition potential of test compounds on targeted kinase. This assay platform provides a homogenous screening method for measuring kinase activity by quantitating the amount of phospho-substrate in solution following a kinase reaction. […]

T1 sequence (Q96RG2 999-1251 limits assumed): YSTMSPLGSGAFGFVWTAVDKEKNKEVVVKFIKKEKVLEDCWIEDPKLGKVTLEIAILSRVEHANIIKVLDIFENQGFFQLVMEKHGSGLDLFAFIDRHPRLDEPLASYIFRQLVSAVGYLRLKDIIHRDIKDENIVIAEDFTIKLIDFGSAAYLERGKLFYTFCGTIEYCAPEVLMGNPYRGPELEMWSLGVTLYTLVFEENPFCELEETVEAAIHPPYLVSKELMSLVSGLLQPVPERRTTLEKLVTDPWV

The compound `O=C(O)c1ccc2c(c1)cc(-c1ccc(F)cc1)n2-c1ccc(F)cc1` [Example 1, 1,2-Bis(4-fluorophenyl)-1H-indole-5-carboxylic acid] gave an IC50 of at most 10 µM.

In turn, `O=C(O)/C=C/c1cnc(-c2ccc(F)cc2)c(-c2ccc(F)cc2)n1` [Example 2, (E)-3-(5,6-bis(4-fluorophenyl)pyrazin-2-yl)acrylic acid] displayed an IC50 of at most 10 µM.
